# Like-named read-outs stand apart in the source and are kept apart here.
# Experiments:
# [1] = system: reagin-mediated Passive Cutaneous Anaphylaxis (PCA) response; assay: Reagin-mediated rat Passive Cutaneous Anaphylaxis (PCA) screening test; format: in vivo, rat (Sprague-Dawley)
# Protocol: The reagin-mediated rat Passive Cutaneous Anaphylaxis (PCA) screening test used to evaluate the present compounds is generally regarded as one of the best animal models for use in predicting the antiallergy activity of test compounds in man. Briefly, the method consists of passive sensitization of skin sites on the test animals with reaginic antibodies followed after 24 hours by administration of the test drug and antigen challenge. The allergic response is measured by use of Evans'blue dye and is evaluated by the spot diameter at the injection site. Details of the test are provided below.
# Ovalbumin (5 times crystalline) Dinitrobenzene sulfonic acid, Na^+ salt Bordetella pertussis vaccine - phase I 10-20 × 10 ^9 killed organisms/ml. Aluminum hydroxide gel - 10 mg./ml. Potassium carbonate Male Sprague-Dawley (S/D) Rats - 200 gms. Female Sprague-Dawley Rats - 100 gms. Tris Buffered Saline (TBS) - 0.02 M 2-amino-2-hydroxymethyl-1,3-propanediol (Tris), 0.15 M NaCL, pH 8.2
# A substituted ovalbumin antigen is used both as immunogen and challenging antigen. The antigen is prepared as follows: 500 mg. ovalbumin (EA) and 500 mg. K2 CO3 are dissolved in 25 ml. distilled H2 O and stirred at room temperature for 5 minutes. Five hundred (500)mg. dinitrobenzene sulfonic acid, Na^+ salt, (previously recrystallized from hot absolute ethanol) is then added slowly with continued stirring. The reaction mixture is then immediately placed in the dark and allowed to proceed for 2 hours with constant stirring. After 2 hours the mixture is placed in suitable dialysis tubing and dialyzed against 5 changes (4 liters each) of distilled H2 O at 5° C. After dialysis the product is lyophilized and stored at room temperature in a brown or amber container. The antigen obtained will appear as a light yellow, amorphous solid which is very soluble in water or saline. It is designated as DNP denatured ovalbumin (DNP-d EA).
# Adult, male Sprague-Dawley rats are used as a source of reagin-rich antisera for the PCA model. Immunization is by a combinatin of DNP-d EA on Al(OH) 3 gel and B. pertussis vaccine. Preparation of the DNP-d EA - gel immunogen is as follows: Dissolve the DNP-d EA in TBS so as to give a concentration of 10 mg./ml. Slowly add 1 ml. of this solution to 10 ml. Al(OH) 3 gel (10 mg. solids/ml.) with constant stirring at room temperature. Stir the mixture an additional 30 minutes to insure a uniform adsorption of antigen on gel.
# The resulting preparation is then used in combination with phase I B. pertussis vaccine to immunize male S/D rats as follows: For each rat administer 0.1 ml. DNP-d EA - gel suspension intramuscularly in each hind leg (200 μg DNP-d EA and 2 mg. gel total dose). Follow these injections by the intraperitoneal administration of 1.0 ml. B. pertussis vaccine (10-20 × 10 ^9 organisms). The use of light ether anesthesia during this procedure is recommended to insure proper intramuscular and intraperitoneal injections. 9 days following immunization (but no longer than 10) the animals are exsanguinated by cardiac puncture or abdominal aorta cannulation under ether or pentobarbital anesthesia. The collected whole blood is allowed to clot, the serum separated by centrifugation and the individual serum samples stored frozen until assayed for IgE content.
# Individual serum samples should be screened for reaginic antibody concentration before being pooled with other sera, as not all rats respond to immunization procedures with reagin production. At 1:50 saline dilution of serum from each immunized rat is used for this purpose. Intradermal injections of 0.05 ml. of the diluted sera are made in the shaven backs of two small female recipient rats, 100-120 gms. Several serum samples can be tested simultaneously in recipient animals. After a 24 to 48 hour latent period antigen challenge is accomplished by intravenous administration to each rat of 1 mg. DNP-d EA in 0.5 ml. 0.5% Evans' blue dye in saline. […]
# [2] = must be administered by inhalation; cited from earlier work
# [3] = system: release of mediators, e.g. histamine and SRS-A; conditions: administered to asthmatic patients prior to inhalation of specific antigens; cited from earlier work
# [4] = cited from earlier work
# [5] = water solubility of salts; format: physicochemical; conditions: salts of 2-(2-n-propoxyphenyl)-5-(5-1H-tetrazolyl)-pyrimidin-4(3H)-one
# [6] = po, 10 min before antigen challenge, read-out: ID50, the dose of compound that inhibits 50% of the response, p.o.
# [7] = iv, test compounds 1-5 min before antigen challenge, DSCG at time of challenge, read-out: ID50, the dose of compound that inhibits 50% of the response, iv.
# [8] = bronchodilators, bronchial asthma
compound,measurement,setting,value
"CCC(C)Oc1ccccc1-c1ncc(-c2nnn[nH]2)c(=O)[nH]1 (racemic) [Example 5, (±)-2-(2-sec-Butoxyphenyl)-5-(5-1H-tetrazolyl)pyrimidin-4(3H)-one]",ED50,[1]; [6],0.05 mg/kg
"O=C(O)c1cc(=O)c2c(OCC(O)COc3cccc4oc(C(=O)O)cc(=O)c34)cccc2o1 [DSCG, disodium cromoglycate]",oral absorption,[2],not orally absorbed
same,inhibition of release of mediators,[3],inhibits the release of mediators
same,ED50,[1]; [7],0.3 mg/kg
same,ED50,[1]; [6],> 30 mg/kg
same,cardiovascular side effects,[4]; in vivo,without cardiovascular side effects
"CCOc1ccccc1-c1ncc(-c2nnn[nH]2)c(=O)[nH]1 [Example 1, 2-(2-Ethoxyphenyl)-5-(5-1H-tetrazolyl)pyrimidin-4-(3H)-one]",ED50,[1]; [7],0.02 mg/kg
same,ED50,[1]; [6],0.09 mg/kg
"CCCOc1ccccc1-c1ncc(-c2nnn[nH]2)c(=O)[nH]1 [Example 2, 2-(2-n-Propoxyphenyl)-5-(5-1H-tetrazolyl)pyrimidin-4(3H)-one]",ED50,[1]; [6],0.04 mg/kg
"CC(C)Oc1ccccc1-c1ncc(-c2nnn[nH]2)c(=O)[nH]1 [Example 3, 2-(2-Isopropoxyphenyl)-5-(5-1H-tetrazolyl)pyrimidin-4(3H)-one]",ED50,[1]; [6],~0.04 mg/kg
"CCCCOc1ccccc1-c1ncc(-c2nnn[nH]2)c(=O)[nH]1 [Example 4, 2-(2-n-Butoxyphenyl)-5-(5-1H-tetrazolyl)pyrimidin-4(3H)-one]",ED50,[1]; [6],~0.07 mg/kg
"COc1ccccc1-c1ncc(-c2nnn[nH]2)c(=O)[nH]1 [Example 6, 2-(2-Methoxyphenyl)-5-(5-1H-tetrazolyl)pyrimidin-4(3H)-one]",ED50,[1]; [6],~0.1 mg/kg
"CC(C)COc1ccccc1-c1ncc(-c2nnn[nH]2)c(=O)[nH]1 [Example 7, 2-(2-Isobutoxyphenyl)-5-(5-1H-tetrazolyl)pyrimidin-4(3H)-one]",ED50,[1]; [6],~0.1 mg/kg
"C=CCOc1ccccc1-c1ncc(-c2nnn[nH]2)c(=O)[nH]1 [Example 8, 2-(2-Allyloxyphenyl)-5-(5-1H-tetrazolyl)pyrimidin-4(3H)-one]",ED50,[1]; [6],0.24 mg/kg
"O=c1[nH]c(-c2ccccc2OCC2CC2)ncc1-c1nnn[nH]1 [Example 9, 2-(2-Cyclopropylmethoxyphenyl)-5-(5-1H-tetrazolyl)pyrimidin-4(3H)-one]",ED50,[1]; [6],0.07 mg/kg
"CCCOc1ccc(OC)cc1-c1ncc(-c2nnn[nH]2)c(=O)[nH]1 [Example 10, 2-(5-Methoxy-2-n-propoxyphenyl)-5-(5-1H-tetrazolyl)pyrimidin-4(3H)-one]",ED50,[1]; [6],0.03 mg/kg
"CCCOc1ccc([N+](=O)[O-])cc1-c1ncc(-c2nnn[nH]2)c(=O)[nH]1 [Example 14, 2-(5-Nitro-2-n-propoxyphenyl)-5-(5-1H tetrazolyl)pyrimidin-4(3H)-one]",ED50,[1]; [6],5 mg/kg
"CCCOc1ccc(N)cc1-c1ncc(-c2nnn[nH]2)c(=O)[nH]1 [Example 15, 2-(5-Amino-2-n-propoxyphenyl)-5-(5-1H-tetrazolyl)pyrimidin-4(3H)-one]",ED50,[1]; [6],~0.1 mg/kg
"CCCOc1ccc(N(C)C)cc1-c1ncc(-c2nnn[nH]2)c(=O)[nH]1 [Example 16, 2-(5-Dimethylamino-2-n-propoxyphenyl)-5-(5-1H-tetrazolyl)pyrimidin-4(3H)-on]",ED50,[1]; [6],~0.4 mg/kg
CN1[C@@H]2CC[C@H]1C[C@@H](OC(=O)C(CO)c1ccccc1)C2 (stereo partly drawn) [atropine],undesirable side effects,[4]; [8],cardiac stimulation and gastrointestinal distress
"CCCOc1ccccc1-c1ncc(-c2nnn[nH]2)c(=O)[nH]1 [diethanolamine, 2-(2-n-propoxyphenyl)-5-(5-1H-tetrazolyl)-pyrimidin-4(3H)-one]",water solubility,[5],water soluble
CNC[C@H](O)c1ccc(O)c(O)c1 [epinephrine],undesirable side effects,[4]; [8],cardiac stimulation and gastrointestinal distress
CC(C)NCC(O)c1ccc(O)c(O)c1 (stereo not drawn) [isoproterenol],undesirable side effects,[4]; [8],cardiac stimulation and gastrointestinal distress
Cn1c(=O)c2[nH]cnc2n(C)c1=O [theophylline],undesirable side effects,[4]; in vivo,cardiac stimulation and gastrointestinal distress

# Reference: patent US4082751A, “Therapeutic agents” (priority 1976, dated 1978)
